The source made the active and inactive calls.
Key:
Cytochrome P450 1A2 = biological target: T1, Cytochrome P450 1A2 (Homo sapiens, UniProt P05177);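 note: PubChem cytochrome P450 panel assay, CYP1A2 panel member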
T1 sequence (P05177 whole entry): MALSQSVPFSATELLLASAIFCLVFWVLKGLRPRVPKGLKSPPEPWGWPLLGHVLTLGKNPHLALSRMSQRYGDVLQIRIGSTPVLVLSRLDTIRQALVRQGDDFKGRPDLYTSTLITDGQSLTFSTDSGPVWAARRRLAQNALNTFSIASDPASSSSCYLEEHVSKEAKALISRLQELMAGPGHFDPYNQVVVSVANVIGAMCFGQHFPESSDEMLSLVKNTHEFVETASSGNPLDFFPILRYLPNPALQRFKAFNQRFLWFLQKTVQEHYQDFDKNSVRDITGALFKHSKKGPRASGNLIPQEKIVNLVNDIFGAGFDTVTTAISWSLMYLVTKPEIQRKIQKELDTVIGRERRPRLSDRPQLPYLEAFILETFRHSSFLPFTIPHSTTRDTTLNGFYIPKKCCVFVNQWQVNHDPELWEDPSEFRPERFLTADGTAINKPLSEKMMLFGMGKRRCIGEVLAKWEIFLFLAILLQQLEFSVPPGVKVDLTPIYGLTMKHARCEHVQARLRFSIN

Cytochrome P450 2C9 [1] = biological target: T2, Cytochrome P450 2C9 (Homo sapiens, UniProt P11712)
Cytochrome P450 2C19 = Cytochrome P450 2C19 (Homo sapiens, UniProt P33261); test: Cytochrome panel assay with activity outcomes. Panel member name: p450-cyp2c19 Compounds with AC50 equal or less than 10 uM are considered active; assay type: functional
Cytochrome P450 2D6 = Cytochrome P450 2D6 (Homo sapiens, UniProt P10635);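 note: CYP2D6 member of a cytochrome P450 panel assay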
[2] = inhibitors of SNCA 5'UTR-driven reporter translation, confirmation, H4 neuroglioma cells, luminescence (AID 1988); assay type: functional, cell-based
[3] = biological target: Nucleotide-binding oligomerization domain-containing protein 2 (Homo sapiens, UniProt Q9HC29); test: NOD2 signaling inhibitors, cell-based, luminescence, uHTS, HEK293 (AID 1566); assay type: functional
BJ [4] = test: cytotoxicity toward BJ-TERT fibroblasts, dose response, cell-based, RAS-independent, luminescence (AID 1933); assay type: functional; settings: Homo sapiens
[5] = inhibitors of firefly luciferase expression or activity, dose response, H4 neuroglioma cells, luminescence (AID 1990); assay type: functional, cell-based
HEK293 [6] = test: NOD2 signaling inhibitors in MDP-stimulated cells, cell-based, uHTS, luminescence (AID 2001); assay type: functional; settings: Homo sapiens
HEK293 [7] = test: cells; assay type: functional, cell-based; settings: Homo sapiens
HEK293 [8] = test: NOD1 signaling inhibitors, primary screen, cell-based, luminescence, uHTS (AID 1578); assay type: functional; settings: Homo sapiens
[9] = Luminescence Cell-Based Dose Response HTS to Identify Inhibitors of 5'UTR Stem-Loop Driven Prion Protein mRNA Translation in H4 Neuroglioblastoma Cells. [Related pubchem assays: 1827 (Project Summary), 1813 (Primary HTS)]; assay type: functional
HEK293 [10] = test: cells; assay type: functional, cell-based; settings: Homo sapiens; remark: listed apart in the source
[11] = cytotoxicity toward DRD oncogenic fibroblasts, dose response, cell-based, non-viral oncogenic, luminescence (AID 1934); assay type: functional; settings: Homo sapiens
HEK293 [12] = test: cells; assay type: functional, cell-based; settings: Homo sapiens; remark: listed apart in the source
BJ [13] = test: cells; assay type: functional, cell-based; settings: Homo sapiens
[14] = biological target: T3, Carboxy-terminal domain RNA polymerase II polypeptide A small phosphatase 1 (Homo sapiens, UniProt Q9GZU7); test: inhibitors of CTDSP1, concentration-response testing, biochemical assay, absorbance-based, actives from ultra-high-throughput screening (AID 540297); assay type: functional
T3 sequence (Q9GZU7 whole entry): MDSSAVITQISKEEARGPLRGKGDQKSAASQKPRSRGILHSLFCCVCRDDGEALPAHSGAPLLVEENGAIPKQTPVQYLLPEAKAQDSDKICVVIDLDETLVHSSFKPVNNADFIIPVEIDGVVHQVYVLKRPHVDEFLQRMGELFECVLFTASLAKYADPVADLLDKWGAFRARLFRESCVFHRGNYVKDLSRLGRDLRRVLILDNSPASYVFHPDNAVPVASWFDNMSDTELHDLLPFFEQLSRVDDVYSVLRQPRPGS

Troponin, cardiac muscle = Troponin, cardiac muscle (Homo sapiens, UniProt P19429+P45379+P63316); test: Fluorescence-based biochemical high throughput dose response assay for activators of the calcium sensitivity of cardiac Regulated Thin Filaments (RTF). [Related pubchem assays (depositor defined):AID493008, AID493018, AID504382, AID504383]; assay type: protein-complex assay
[15] = biological target: T4, Alkaline phosphatase, tissue-nonspecific isozyme (Homo sapiens, UniProt P05186); test: human TNAP enzyme inhibitors, SAR follow-up, biochemical, luminescent, dose response (AID 1056)
T4 sequence (P05186 whole entry): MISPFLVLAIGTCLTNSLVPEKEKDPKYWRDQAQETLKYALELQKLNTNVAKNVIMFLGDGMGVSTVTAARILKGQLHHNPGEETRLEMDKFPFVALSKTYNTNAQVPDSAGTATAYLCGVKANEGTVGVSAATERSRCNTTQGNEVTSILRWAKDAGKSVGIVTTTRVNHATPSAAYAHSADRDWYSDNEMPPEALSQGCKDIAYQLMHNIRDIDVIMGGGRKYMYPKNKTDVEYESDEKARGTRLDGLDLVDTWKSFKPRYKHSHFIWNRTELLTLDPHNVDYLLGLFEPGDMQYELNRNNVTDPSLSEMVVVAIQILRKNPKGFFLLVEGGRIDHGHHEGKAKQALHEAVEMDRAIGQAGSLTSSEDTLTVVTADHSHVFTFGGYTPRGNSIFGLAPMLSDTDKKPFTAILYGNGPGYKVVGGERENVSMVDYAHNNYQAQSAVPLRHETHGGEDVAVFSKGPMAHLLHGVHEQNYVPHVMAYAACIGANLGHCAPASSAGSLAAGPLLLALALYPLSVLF

[16] = biological target: Glyceraldehyde-3-phosphate dehydrogenase (Homo sapiens, UniProt P04406)
Cytochrome P450 3A4 = Cytochrome P450 3A4 (Homo sapiens, UniProt P08684);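 note: CYP3A4 tested as one member of a cytochrome P450 panel screen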
[17] = cytotoxicity in MIN6 insulinoma cells, dose response, cytotoxicity control, cell-based, mouse insulinoma (AID 2122); assay type: functional;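 note: confirmatory high-throughput counterscreen run to flag cytotoxic compounds; mouse MIN-6 beta cells carrying an insulin promoter eGFP reporter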
[18] = insulin promoter down-regulators in MIN6 cells, imaging, high-content screening, mouse beta cells (AID 1628); assay type: functional
Estrogen receptor = biological target: T5, Estrogen receptor (Homo sapiens, UniProt P03372);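 note: potency for inhibiting coactivator peptide recruitment to the receptor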
T5 sequence (P03372 whole entry): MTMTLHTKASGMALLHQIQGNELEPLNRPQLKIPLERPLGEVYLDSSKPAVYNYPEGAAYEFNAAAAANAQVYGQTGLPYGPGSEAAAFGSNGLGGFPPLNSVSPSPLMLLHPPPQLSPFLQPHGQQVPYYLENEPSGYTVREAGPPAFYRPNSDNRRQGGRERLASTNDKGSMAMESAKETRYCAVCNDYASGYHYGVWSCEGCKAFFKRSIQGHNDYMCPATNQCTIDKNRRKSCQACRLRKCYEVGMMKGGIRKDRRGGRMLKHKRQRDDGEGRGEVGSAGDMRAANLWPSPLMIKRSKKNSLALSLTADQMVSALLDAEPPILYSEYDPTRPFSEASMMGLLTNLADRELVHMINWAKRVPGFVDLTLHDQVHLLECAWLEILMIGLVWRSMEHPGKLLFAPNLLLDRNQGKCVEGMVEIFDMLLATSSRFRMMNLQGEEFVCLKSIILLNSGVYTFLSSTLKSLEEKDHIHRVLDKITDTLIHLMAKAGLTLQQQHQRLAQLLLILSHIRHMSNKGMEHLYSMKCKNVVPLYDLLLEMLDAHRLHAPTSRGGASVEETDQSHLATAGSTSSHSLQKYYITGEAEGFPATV

[19] = Luminescence Cell-Based Dose Confirmation HTS to Identify Inhibitors of Platelet Dense Granule Release. [Related pubchem assays: 1663 (Primary HTS), 1678 (Summary of Project)]; assay type: functional
[20] = non-specific cell cytotoxicity, dose response, cytotoxicity control for PAX8 inhibitor project, plate reader, dry powder samples (AID 743021); assay type: functional, cell-based
Cytochrome P450 2C9 [21] = biological target: T2, Cytochrome P450 2C9; remark: listed apart in the source
[22] = biological target: Peroxisome proliferator-activated receptor gamma/Nuclear receptor coactivator 1 (Homo sapiens, UniProt P37231); test: TR-FRET dose response biochemical High Throughput Screening assay for agonists of the steroid receptor coactivator 1 (SRC-1) recruitment by the peroxisome proliferator-activated receptor gamma (PPAR gamma): non-selective agonists. [Related pubchem assays (depositor defined):AID1300, AID1808, AID504735, AID631]; assay type: protein assay
[23] = biological target: Peroxisome proliferator-activated receptor gamma/Nuclear receptor coactivator 2 (Homo sapiens, UniProt P37231); test: TR-FRET dose response biochemical High Throughput Screening assay for agonists of the steroid receptor coactivator 2 (SRC-2) recruitment by the peroxisome proliferator-activated receptor gamma (PPAR gamma): non-selective agonists. [Related pubchem assays: 1297, 1032 ]; assay type: functional
[24] = biological target: Peroxisome proliferator-activated receptor gamma/Nuclear receptor coactivator 3 (Homo sapiens, UniProt P37231); test: TR-FRET dose response biochemical High Throughput Screening assay for agonists of the steroid receptor coactivator 3 (SRC-3) recruitment by the peroxisome proliferator-activated receptor gamma (PPAR gamma): non-selective agonists. [Related pubchem assays: 1301 (Confirmation screen.), 1048 (Primary screen.)]; assay type: functional

COc1ccc(NC(=O)c2ccc(-n3cccn3)nc2)c(OC)c1
AC50 (Cytochrome P450 1A2): 2.82 µM (inconclusive) | AC50 (Cytochrome P450 2C9 [1]): inconclusive | AC50 (Cytochrome P450 2C19; read-out: AC50): 14.1 µM (inconclusive)

CCCCCCCCCC[Si](C)(C)CCC(=O)N[C@@H](Cc1ccc(C)cc1)c1ccccc1
AC50 (Cytochrome P450 2D6): 39.8 µM (inconclusive) | AC50 (Cytochrome P450 1A2): 31.6 µM (inconclusive) | AC50 (Cytochrome P450 2C9 [1]): inconclusive | AC50 (Cytochrome P450 2C19): inconclusive

O=C1C=C(c2ccccc2)C[C@H](c2cccs2)[C@H]1n1nnc([N+](=O)[O-])n1
EC50 [2]: 9.23 µM (active) | EC50 [3]: 11 µM (active) | EC50 (BJ [4]): 0.681 µM (active) | EC50 [5]: 6.52 µM (active) | IC50 (HEK293 [6]): 9.37 µM (active) | IC50 (HEK293 [7]): > 20 µM (inactive) | EC50 (HEK293 [8]): 9.57 µM (active) | EC50 [9]: 17.5 µM (active) | IC50 (HEK293 [10]): > 20 µM (inactive) | EC50 [11]: 0.668 µM (active) | IC50 (HEK293 [12]): > 20 µM (inactive) | EC50 (BJ [13]): 1.11 µM (active)

Cc1cc(C(=O)Nc2ccccc2C(=O)O)ccc1NC(=O)COc1ccccc1Cl
EC50 [3]: 5.38 µM (active) | IC50 (HEK293 [6]): > 20 µM (inactive) | IC50 [14]: 6.31 µM (active) | IC50 (HEK293 [7]): > 20 µM (inactive) | EC50 (HEK293 [8]): > 20 µM (inactive) | IC50 (HEK293 [10]): > 20 µM (inactive) | IC50 (HEK293 [12]): > 20 µM (inactive)

Oc1[nH]nc(C(F)(F)F)c1/C=N/Cc1ccccc1Cl
EC50 (Troponin, cardiac muscle): > 71.4 µM (inactive)

CC1CCCC(C)N1C(=O)c1cc(-c2ccc(Cl)c(Cl)c2)on1 (stereo not given)
AC50 (Cytochrome P450 2C9 [1]): inconclusive

O=S(=O)(Nc1cccnc1)c1ccccc1OC(F)(F)F
IC50 [15]: > 100 µM (inactive) | IC50 [16]: > 100 µM (not active)

Cn1c(=O)c(-c2cccc(C#N)c2)nc2cnc(Oc3ccccc3)nc21
AC50 (Cytochrome P450 3A4): inconclusive

Cc1ccccc1-c1cc(N(C)C)ncn1
AC50 (Cytochrome P450 2D6): 39.8 µM (inconclusive) | AC50 (Cytochrome P450 3A4): inconclusive

Cc1nc2ccccn2c1C(=O)N=Nc1c(O)n(CCC(C)C)c2ccccc12
IC50 [17]: 2.72 µM (active) | IC50 [18]: 1.67 µM (active)

O=C1CC(c2ccc(F)cc2)Cc2nc(NCC3CCCO3)ncc21 (stereo not given)
IC50 (Estrogen receptor): > 50 µM (not active) | AC50 (Cytochrome P450 3A4): inconclusive

COc1ccc(CCNC(=O)c2ccc3c(c2)N(Cc2ccccc2)CCS3)cc1OC
EC50 [3]: > 20 µM (inactive) | IC50 (HEK293 [6]): 7.53 µM (active) | IC50 (HEK293 [7]): > 20 µM (inactive) | EC50 (HEK293 [8]): 6.99 µM (active) | IC50 (HEK293 [10]): > 20 µM (inactive) | IC50 (HEK293 [12]): 8.65 µM (active)

COc1ccc(N(Cc2cc3cc(OC)ccc3nc2O)S(=O)(=O)c2ccc(NC(C)=O)cc2)cc1
IC50 (HEK293 [6]): > 20 µM (inactive) | IC50 (HEK293 [7]): > 20 µM (inactive) | EC50 (HEK293 [8]): > 20 µM (inactive) | IC50 (HEK293 [10]): > 20 µM (inactive) | IC50 (HEK293 [12]): 7.22 µM (active) | EC50 [19]: > 112 µM (not active) | AC50 [20]: 49.1 µM (active)

CC1(C)CC(NC(=O)c2ccc3c(c2)OCO3)CC(C)(C)N1
AC50 (Cytochrome P450 2C9 [21]): 8.91 µM (inconclusive) | AC50 (Cytochrome P450 3A4): inconclusive

COc1ccc2c(c1[N+](=O)[O-])CCC/C2=N/OC(=O)c1cccc2ccccc12
AC50 (Cytochrome P450 2C9 [1]): inconclusive

COC(=O)c1sc(N2C(=O)C(O)=C(C(=O)c3ccc(C)o3)C2c2ccc(F)cc2)nc1C (stereo not given)
EC50 (Troponin, cardiac muscle): > 71.4 µM (inactive) | EC50 [22]: 41.9 µM (inactive) | EC50 [23]: 32.3 µM (not active) | EC50 [24]: > 79.4 µM (not active)

S=c1[nH]nc(-c2ccc(Cl)cc2)n1-c1ccc2c(c1)OCCO2
EC50 (Troponin, cardiac muscle): > 71.5 µM (inactive)

c1ccc2c3nc[nH]c(N4CCCC4)c-3nc2c1
IC50 [17]: 3.1 µM (active) | IC50 [18]: 3.72 µM (active)
